Publication PMC5867641, “Function-Oriented Synthesis of Marine Phidianidine Derivatives as Potential PTP1B Inhibitors with Specific Selectivity” (Marine Drugs, 2018)
Like-named read-outs stand apart in the source and are kept apart here. One block for each compound: values may come before it.

Legend:
PTP1B = target: T1, PTP1B (Homo sapiens, UniProt P18031); experiment: PTP1B inhibition assay with p-nitrophenyl phosphate (pNPP) as substrate; conditions: for % Inhibition (20 μM) on PTP1B: 20 μM compound, 2% DMSO; for inhibition at 20 µM: read-out: % Inhibition (20 μM) on PTP1B; for PTP1B inhibitory activity, in words: screened at 20 μM
T1 sequence (P18031 1-435): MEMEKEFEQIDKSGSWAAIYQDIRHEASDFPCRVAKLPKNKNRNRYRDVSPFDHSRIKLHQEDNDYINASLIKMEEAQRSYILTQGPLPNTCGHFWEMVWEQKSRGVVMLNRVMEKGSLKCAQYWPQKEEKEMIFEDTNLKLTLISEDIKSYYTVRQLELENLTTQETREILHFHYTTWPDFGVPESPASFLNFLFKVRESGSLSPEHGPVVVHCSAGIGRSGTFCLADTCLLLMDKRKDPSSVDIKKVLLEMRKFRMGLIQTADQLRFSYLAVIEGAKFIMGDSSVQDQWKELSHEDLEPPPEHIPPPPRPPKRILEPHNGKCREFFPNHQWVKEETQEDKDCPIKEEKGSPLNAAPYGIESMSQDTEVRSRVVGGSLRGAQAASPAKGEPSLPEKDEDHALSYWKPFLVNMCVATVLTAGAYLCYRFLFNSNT

[1] = target: T2, T-cell protein tyrosine phosphatase (TCPTP) (Homo sapiens, UniProt P17706); experiment: TCPTP inhibition assay (selectivity); format: biochemical; conditions: for inhibition at 20 µM / % Inhibition (20 μM) on TCPTP: 20 μM compound, 2% DMSO
T2 sequence (P17706 1-415): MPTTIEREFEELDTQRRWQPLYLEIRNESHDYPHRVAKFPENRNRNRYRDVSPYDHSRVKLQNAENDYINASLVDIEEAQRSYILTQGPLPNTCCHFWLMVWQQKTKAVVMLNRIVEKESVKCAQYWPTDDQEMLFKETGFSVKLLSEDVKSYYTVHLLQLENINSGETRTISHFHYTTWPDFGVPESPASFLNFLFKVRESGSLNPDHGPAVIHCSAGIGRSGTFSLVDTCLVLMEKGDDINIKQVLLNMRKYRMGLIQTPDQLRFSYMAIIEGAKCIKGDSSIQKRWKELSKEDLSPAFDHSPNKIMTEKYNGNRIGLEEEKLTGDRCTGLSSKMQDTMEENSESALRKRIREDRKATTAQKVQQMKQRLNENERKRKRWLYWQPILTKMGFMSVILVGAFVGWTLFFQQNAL
Procedure: The selectivity of all the PTP1B inhibitory compounds was also evaluated against TCPTP.

[2] = read-out: IC50 on PTP1B, pNPP substrate, dose-response run when inhibition >50% at 20 μM

Structure (SMILES): NC(=NOC(=O)Cc1c[nH]c2ccccc12)c1ccccc1 [9a]
- % Inhibition (20 μM) on PTP1B (PTP1B; pNPP substrate): 7.3 ± 6.8%

Structure (SMILES): NC(=NOC(=O)Cc1c[nH]c2ccccc12)c1ccc(F)cc1 [9b]
- % Inhibition (20 μM) on PTP1B (PTP1B; pNPP substrate): 14.0 ± 4.3%

Structure (SMILES): NC(=NOC(=O)Cc1c[nH]c2ccccc12)c1ccc(Cl)cc1 [9c]
- % Inhibition (20 μM) on PTP1B (PTP1B; pNPP substrate): 5.2 ± 1.8%

Structure (SMILES): NC(=NOC(=O)Cc1c[nH]c2ccccc12)c1ccc([N+](=O)[O-])cc1 [9d]
- % Inhibition (20 μM) on PTP1B (PTP1B; pNPP substrate): 9.8 ± 7.1%

Structure (SMILES): CCc1ccc(C(N)=NOC(=O)Cc2c[nH]c3ccccc23)cc1 [9e]
- % Inhibition (20 μM) on PTP1B (PTP1B; pNPP substrate): 23.4 ± 3.7%

Structure (SMILES): c1ccc(-c2noc(Cc3c[nH]c4ccccc34)n2)cc1 [10a]
- % Inhibition (20 μM) on PTP1B (PTP1B; pNPP substrate): 2.4 ± 1.2%

Structure (SMILES): Fc1ccc(-c2noc(Cc3c[nH]c4ccccc34)n2)cc1 [10b]
- % Inhibition (20 μM) on PTP1B (PTP1B; pNPP substrate): 19.8 ± 0.1%

Structure (SMILES): Clc1ccc(-c2noc(Cc3c[nH]c4ccccc34)n2)cc1 [10c]
- % Inhibition (20 μM) on PTP1B (PTP1B; pNPP substrate): 40.0 ± 7.6%

Structure (SMILES): O=[N+]([O-])c1ccc(-c2noc(Cc3c[nH]c4ccccc34)n2)cc1 [10d]
- % Inhibition (20 μM) on PTP1B (PTP1B; pNPP substrate): 44.5 ± 0.3%

Structure (SMILES): CCc1ccc(-c2noc(Cc3c[nH]c4ccccc34)n2)cc1 [10e]
- IC50 (PTP1B): 16.8 µM
- inhibition at 20 µM (PTP1B): 50.5 ± 1.1%
- inhibition at 20 µM [1]: 15.8%

Structure (SMILES): CCc1ccc(C(=O)ON=C(N)Cc2c[nH]c3ccccc23)cc1 [13a]
- IC50 (PTP1B; [2]): > 20 µM

Structure (SMILES): CCCCCCc1ccc(C(=O)ON=C(N)Cc2c[nH]c3ccccc23)cc1 [13c]
- IC50 (PTP1B; [2]): > 20 µM

Structure (SMILES): NC(Cc1c[nH]c2ccccc12)=NOC(=O)c1ccccc1F [13d]
- IC50 (PTP1B; [2]): > 20 µM

Structure (SMILES): NC(Cc1c[nH]c2ccccc12)=NOC(=O)c1ccc(C(F)(F)F)cc1 [13e]
- IC50 (PTP1B; [2]): > 20 µM

Structure (SMILES): COc1ccc(C(=O)ON=C(N)Cc2c[nH]c3ccccc23)cc1 [13f]
- IC50 (PTP1B; [2]): > 20 µM

Structure (SMILES): COc1ccc(C(=O)ON=C(N)Cc2c[nH]c3ccccc23)c(Br)c1 [13g]
- IC50 (PTP1B; [2]): > 20 µM

Structure (SMILES): CCCCC(=O)ON=C(N)Cc1c[nH]c2ccccc12 [13h]
- IC50 (PTP1B; [2]): > 20 µM

Structure (SMILES): NC(Cc1c[nH]c2ccccc12)=NOC(=O)CCCCBr [13i]
- IC50 (PTP1B; [2]): > 20 µM

Structure (SMILES): CCCCCCc1ccc(-c2nc(Cc3c[nH]c4ccccc34)no2)cc1 [14c]
- IC50 (PTP1B; [2]): 4.9 ± 0.8 µM
- % Inhibition (20 μM) on TCPTP [1]: 54.18%

Structure (SMILES): COc1ccc(-c2nc(Cc3c[nH]c4ccccc34)no2)cc1 [14f]
- IC50 (PTP1B; [2]): > 20 µM
- PTP1B inhibitory activity, in words (PTP1B): no activity

Structure (SMILES): c1ccc(-c2nc(Cc3c[nH]c4ccccc34)no2)nc1 [14o]
- IC50 (PTP1B; [2]): > 20 µM

Structure (SMILES): N=C(N)NCCCCCNc1noc(Cc2c[nH]c3ccccc23)n1 [Phidianidine B (2), phidianidine B, reference compound]
- inhibition at 20 µM (PTP1B): 23.5 ± 2.6%

The next lines start with the values.

- IC50 (PTP1B): 13.5 ± 0.6 µM
- inhibition at 20 µM [1]: 9.22%
Structure (SMILES): CCc1ccc(-c2nc(Cc3c[nH]c4ccccc34)no2)cc1 [14a]

- IC50 (PTP1B; [2]): 7.1 ± 0.1 µM
- % Inhibition (20 μM) on TCPTP [1]: 50.31%
Structure (SMILES): CCCCc1ccc(-c2nc(Cc3c[nH]c4ccccc34)no2)cc1 [14b]

- IC50 (PTP1B; [2]): > 20 µM
- PTP1B inhibitory activity, in words (PTP1B): no activity
Structure (SMILES): Fc1ccccc1-c1nc(Cc2c[nH]c3ccccc23)no1 [14d]

- IC50 (PTP1B; [2]): > 20 µM
Structure (SMILES): FC(F)(F)c1ccc(-c2nc(Cc3c[nH]c4ccccc34)no2)cc1 [14e]

- IC50 (PTP1B; [2]): > 20 µM
Structure (SMILES): COc1ccc(-c2nc(Cc3c[nH]c4ccccc34)no2)c(Br)c1 [14g]

- IC50 (PTP1B; [2]): > 20 µM
- PTP1B inhibitory activity, in words (PTP1B): disappearance of the inhibitory activity
Structure (SMILES): CCCCc1nc(Cc2c[nH]c3ccccc23)no1 [14h]

- IC50 (PTP1B; [2]): > 20 µM
- PTP1B inhibitory activity, in words (PTP1B): disappearance of the inhibitory activity
Structure (SMILES): CC(=O)OCCCCc1nc(Cc2c[nH]c3ccccc23)no1 [14i]

- IC50 (PTP1B; [2]): > 20 µM
Structure (SMILES): CC(C)c1nc(Cc2c[nH]c3ccccc23)no1 [14j]

- IC50 (PTP1B; [2]): > 20 µM
Structure (SMILES): ClC(Cl)c1nc(Cc2c[nH]c3ccccc23)no1 [14k]

- IC50 (PTP1B; [2]): 8.6 ± 1.5 µM
- % Inhibition (20 μM) on TCPTP [1]: 25.52%
Structure (SMILES): c1ccc2c(Cc3noc(C4CCC4)n3)c[nH]c2c1 [14l]

- IC50 (PTP1B; [2]): > 20 µM
- PTP1B inhibitory activity, in words (PTP1B): lack of activity
Structure (SMILES): c1ccc2c(Cc3noc(C4CCCC4)n3)c[nH]c2c1 [14m]

- IC50 (PTP1B; [2]): 5.3 ± 0.7 µM
- % Inhibition (20 μM) on TCPTP [1]: 11.68%
- TCPTP inhibitory activity, in words ([1]; at the concentration of 20 μM): lowest inhibitory percentage
Structure (SMILES): c1ccc2c(Cc3noc(C4CCCCC4)n3)c[nH]c2c1 [14n]

- IC50 (PTP1B; [2]): > 20 µM
Structure (SMILES): Fc1ccc2[nH]cc(Cc3nc(Cc4c[nH]c5ccccc45)no3)c2c1 [14q]

- IC50 (PTP1B; [2]): 7.4 ± 0.1 µM
- % Inhibition (20 μM) on TCPTP [1]: 34.51%
Structure (SMILES): Brc1ccc2[nH]cc(Cc3nc(Cc4c[nH]c5ccccc45)no3)c2c1 [14s]

- IC50 (PTP1B; [2]): 9.7 ± 1.7 µM
- % Inhibition (20 μM) on TCPTP [1]: 38.74%
Structure (SMILES): Clc1cccc2[nH]cc(Cc3nc(Cc4c[nH]c5ccccc45)no3)c12 [14u]
